A short description of data set [1]: Acute and chronic toxicity in Swiss mice. In kind it is in vivo. The note with it: i.p. On the procedure: In the first case assays on acute and chronic toxicity are carried out on Swiss mice (males aged 8-10 weeks) to show possible effects of general toxicity due to AE on weight, neurological and intestinal functions, and hematological parameters. The animals were treated with high doses by intraperitoneal route, between 30 mg/Kg/die and 50 mg/Kg/die, in one administration and with low doses, between 1 mg/Kg/die and 10 mg/Kg/die, for repeated dosages.
The animals were monitored to check possible neurological damages by means of periodically repeated behavioral tests, to check hematic toxicity by means of weekly hemochrome analyses, and to check intestinal toxicity by means of daily faeces analyses. Moreover, the animals have also been weighed twice a week during the whole test. At the end of the tests the animals have been killed and the autopsy has been conducted.

Data set [2] deals with neuroblastoma (IMR-32, IMR-5, AF8, SJ-N-KP). The data set can be described thus: In vitro cytotoxicity assay, neuroblastoma cell lines. As to conditions: Homo sapiens, 72 hours exposure, 0 to 100 μM, read-out: ED50 (half-maximal effective dose), cytotoxicity. In kind it is cell-based.
Source text: (§2) tumors of neuroectodermic origin: neuroblastoma (IMR-32, IMR-5, AF8, SJ-N-KP), pPNET (TC32), Ewing's sarcoma (TC106), melanoma (Mel 23);
The subject of a further data set is Ewing's sarcoma (TC106). Put plainly: In vitro cytotoxicity assay, Ewing's sarcoma cells. The data set is classed as cell-based. The note with it: Homo sapiens, 72 hours exposure, 0 to 100 μM, read-out: ED50 (half-maximal effective dose), cytotoxicity.
In data set [3] the test system is acute lymphocytic leukemia lines (CEM, CEM VBL). The data set can be described thus: In vitro cytotoxicity assay, leukemia lines. The data set is classed as cell-based. As to conditions: Homo sapiens, 72 hours exposure, 0 to 100 μM, read-out: ED50 (half-maximal effective dose), cytotoxicity. The text has this:
tumors of different origin: T-cell leukemia (CEM) and T-cell leukemia vinblastine-resistant (CEM VBL), colon adenocarcinoma (LoVo 109) and colon adenocarcinoma doxorubicin-resistant (LoVo DX), cervix epithelioid carcinoma (HeLa);

Data set [4] concerns hemopoietic progenitors cells from cord blood. The data set can be described thus: Clonogenic test, CFU-GM from cord blood. The data set is classed as cell-based. As to conditions: Homo sapiens, 336 h, methyl cellulose, 1-100 μM, 14 days, read-out: ED50 for the growth of CFU-GM colonies. How it is done:
(§1) Clonogenic tests have also been carried out on hemopoietic progenitors cells, obtained from bone marrow (BM ? ) of healthy donors and from cord blood (CB □), and on neuroblastoma cells (SJ-N-KP ▪). The cell have been grown in methyl cellulose with scalar doses of AE in concentrations between 1 and 100 μM for 14 days.

A short description of data set [5]: In vitro cytotoxicity assay, normal fibroblasts. The note with it: human, normal lung fibroblasts (MRC5), 72 hours exposure, 0 to 100 μM, read-out: ED50 (half-maximal effective dose), cytotoxicity. The data set is classed as cell-based. The text has this: normal cells: human lung fibroblasts (MRC5).
Data set [6] relates to hemopoietic progenitors cells from bone marrow of healthy donors. The data set can be described thus: Clonogenic test, CFU-GM from bone marrow. In kind it is cell-based. As to conditions: Homo sapiens, 336 h, methyl cellulose, 1-100 μM, 14 days, read-out: ED50 for the growth of CFU-GM colonies. On the procedure: as §1
The subject of data set [7] is neuroectodermal tumor cells.

Source text for Ewing's sarcoma (TC106): as §2

On to `O=C1c2cccc(O)c2C(=O)c2c(O)cc(CO)cc21` [AE, 1,8-dihydroxy-3-hydroxymethyl-9.10-anthracenedione], for which the “general toxicity (weight, neurological, intestinal, hematological)” value in data set [1] (30-50 mg/Kg/die single or 1-10 mg/Kg/die repeated) was “No toxicity”. The autopsy findings result in data set [1] (at the end of the tests) is given as “not shown any damage to the main organs”. Also, the EC50 in data set [2] worked out at 1 µM; in the data set on Ewing's sarcoma (TC106) it was 13 µM; in data set [3], 100 µM; in data set [4] it was 120 µM; in data set [6] it was 80 µM. Further, the EC50 at 72 h in data set [5] turned out to be 40 µM.

Regarding `O=C1c2c(O)cccc2C(C2O[C@H](CO)[C@@H](O)[C@H](O)[C@H]2O)c2cc(CO)cc(O)c21` (stereo partly drawn) [glycosylated form of AE, 10-1,5anhydroglucosyl-1,8-dihydroxy-3-hydroxymethyl-9-anthrone], the cytotoxic effect entry in data set [7] was “no cytotoxic effect”.

The values above are taken from patent publication US6812255B2, “Use of aloe-emodin in the treatment of neuroectodermal tumors” (Universita Degli Studi Di Padova, priority 2002, dated 2004).
